# Read-outs that look alike come from different tables or passages of the source.
# Legend:
# TcCYP51 = conditions: formerly reported; cited from earlier work
# [1] = test system: H9c2 (rat cardiomyocytes); assay: RoK assay, number of host cells nuclei (drug-related cytotoxicity, H9c2 output, Cmin_Tox); conditions: H9c2 host cells
# Outline: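 H9c2 rat cardiomyocytes infected with T. cruzi trypomastigotes, plated in 384-well format, compound-treated and imaged over a time course. Host nuclei counted after formaldehyde fixation and DRAQ5 staining by high-content imaging. Cmin_Tox is the lowest concentration reducing host cells below 50% of initial density.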
# [2] = test system: T. cruzi Tulahuen trypomastigotes; assay: T. cruzi trypomastigote assay (Cell Titer-Glo viability, ATP luminescence); assay type: cell-based, Trypanosoma cruzi; conditions: for IC50: Trypanosoma cruzi, TULAHUEN; for Trypomastigotes pIC50 48 hours: 48 hours incubation; for Trypomastigotes pIC50 48 hours / Trypomastigotes pIC50 72 hours: pIC50 = -log10 IC50 in molar units; for Trypomastigotes pIC50 72 hours: 72 hours incubation; for activity in trypomastigotes assay (in words): 48 and 72 hours
# Outline: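 Tulahuen trypomastigotes from infected LLC-MK2 culture supernatants (days 5–8) plated at 5 × 10^4 per well in DMEM/2% FBS with compound at 5 μM single-shot final or in dose response. Viability by CellTiter-Glo ATP luminescence after 10 min at room temperature, normalised to no-cell (100%) and DMSO (0%) controls.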
# [3] = 48 h, read-out: Trypomastigotes pIC50 48 hours (converted)
# [4] = 72 h, read-out: Trypomastigotes pIC50 72 hours (converted)
# [5] = 72 hours, plotted values, censored values given without sign
# [6] = trypomastigote assay, 48 h, figure 1A
# [7] = trypomastigote assay, 72 h, figure 1A
# [8] = trypomastigote assay, 72 h, figure 1B
Compound,CYP51 pIC50 (TcCYP51),Cmin_Tox [1] [µM],activity versus trypomastigotes at 48 hours (in words) ([2]; 48 hours),activity versus trypomastigotes at 72 hours (in words) ([2]; 72 hours),"IC50 [2, 3] [µM]","IC50 [2, 4] [µM]",Trypomastigotes pIC50 48 hours [2],Trypomastigotes pIC50 72 hours [2],"72 pIC50 (trypomastigotes, raw data of Fig 1D) [2, 5]","48 pIC50 [2, 6]","72 pIC50 [2, 7]","72 pIC50 [2, 8]",activity in trypomastigotes assay (in words) [2],"IC50 ([2]; 72 hours, plotted values, censored values given without sign, read-out: 72 pIC50 (trypomastigotes, raw data of Fig 1D) (converted)) [µM]","IC50 ([2]; trypomastigote assay, 48 h, figure 1A, read-out: 48 pIC50 (converted)) [µM]","IC50 ([2]; trypomastigote assay, 72 h, figure 1A, read-out: 72 pIC50 (converted)) [µM]"
"O=c1[nH]cnc2c([C@@H]3O[C@H](CO)[C@@H](O)[C@H]3O)n[nH]c12 [TCMDC-143083, Formycin B]",< 4,>50,inactive,active,> 50.1,2.51,,,,,,,,,,
COc1ccc(C2CC(c3ccccc3Cl)=NN2C(=O)CNC(=O)C2CCC2)cc1 (stereo not shown) [TCMDC-143130],4.3,>50,,,,,4.6,4.7,,,,,,,,
Cc1[nH]nc2c1C(c1ccc(OCc3ccccc3F)cc1)SCC(=O)N2 (stereo not shown) [TCMDC-143328],< 4,>50,,,,,5.1,5.1,5.1,5.1,5.1,5.1,,,,
CCCN1CCN(Cc2ccc(S(=O)(=O)Nc3cccc(C)c3)cc2)CC1.O=C(O)C(F)(F)F.O=C(O)C(F)(F)F [TCMDC-143550],< 4,>50,,,,,< 4.3,< 4.3,< 4.3,< 4.3,< 4.3,< 4.3,,,,
CC(C)Oc1cccc(N2CCC(C(=O)N3CCCN(C(C)C)CC3)CC2)c1.Cl [TCMDC-143432],< 4,>50,,,,,< 4.3,< 4.3,< 4.3,< 4.3,< 4.3,< 4.3,,,,
Cc1nc2nc(C)c(Cc3ccc(C(C)C)cc3)c(=O)n2[nH]1 [TCMDC-143087],< 4,>50,,,,,5.8,5.9,,,,,active versus trypomastigotes at 48 and 72 hours with the same potency,,,
N#Cc1cc(N2CCCC2=O)ccc1Sc1ccccc1CO [TCMDC-143604],4.7,>50,,,,,< 4.3,< 4.3,< 4.3,< 4.3,< 4.3,< 4.3,,,,
O=c1[nH]ccc2ccc(-c3ccncc3)cc12 [TCMDC-143631],7.8,>50,,,,,< 4.3,< 4.3,< 4.3,< 4.3,< 4.3,< 4.3,,,,
COc1ccc(NS(=O)(=O)c2cccc(NC(=O)c3cc(F)cc(F)c3)c2)cc1 [TCMDC-143108],< 4,>50,,,,,5,5.6,,,,,,,,
"CC[C@@H]([C@H](C)O)n1ncn(-c2ccc(N3CCN(c4ccc(OC[C@@H]5CO[C@@](Cn6cncn6)(c6ccc(F)cc6F)C5)cc4)CC3)cc2)c1=O [Posaconazole, reference compound]",7.3,42.2,,,> 50.1,> 50.1,,,,,,< 4.3,inactive,> 50.1,> 50.1,> 50.1
OCCCNc1nc(Nc2ccncc2)nc2ccccc12 [TCMDC-143476],< 4,>50,,,,,5.3,5.6,,,,,,,,
CC(=Cc1ccccc1)CN1CCC(=O)N(Cc2cccnc2)CC1 [TCMDC-143421],7,>50,,,,,4.7,< 4.3,,,,,,,,
CC(C)N(C(=O)CN1C(=O)C(N)C(=O)N(c2ccccc2)c2ccccc21)c1ccccc1 (stereo not shown) [TCMDC-143071],6.5,>50,,,,,< 4.3,< 4.3,< 4.3,< 4.3,< 4.3,< 4.3,,,,
Cc1cc2cncn2c(C2CCCCN2C(=O)c2cccs2)n1 (stereo not shown) [TCMDC-143500],7,>50,,,,,< 4.3,< 4.3,< 4.3,< 4.3,< 4.3,< 4.3,,,,
Cc1ccc(C)c(OC2CCN(C(=O)C(C)n3ccnc3)CC2)c1 (stereo not shown) [TCMDC-143481],7,>50,,,,,< 4.3,< 4.3,< 4.3,< 4.3,< 4.3,< 4.3,,,,

# — PMC8318231, “Rate-of-Kill (RoK) assays to triage large compound sets for Chagas disease drug discovery: Application to GSK Chagas Box” (PLoS Neglected Tropical Diseases, 2021)
